From paper PMC10401832 (Biotechnology for Biofuels and Bioproducts, 2023)

Experiments:
[1] = target: T1, GsAlaDH (Geobacillus stearothermophilus, UniProt P17557); assay: spectrophotometric NADH change at […] nm; format: biochemical; conditions: oxidative deamination, NAD+, Na2CO3-NaHCO3 pH 10.0; Table 1 heads this block 'Reductive reaction' but text assigns it to L-alanine
T1 construct: gene ald; possible hexamer (model)

[2] = substrate: CC(=O)C(=O)O; assay: purified protein; format: biochemical, Bacillus subtilis; conditions: reductive amination, NADH and NH4Cl, Tris-HCl pH 8.0, Table 1 heads this block 'Oxidative reaction' but text assigns it to pyruvate

T1 sequence (P17557 whole entry): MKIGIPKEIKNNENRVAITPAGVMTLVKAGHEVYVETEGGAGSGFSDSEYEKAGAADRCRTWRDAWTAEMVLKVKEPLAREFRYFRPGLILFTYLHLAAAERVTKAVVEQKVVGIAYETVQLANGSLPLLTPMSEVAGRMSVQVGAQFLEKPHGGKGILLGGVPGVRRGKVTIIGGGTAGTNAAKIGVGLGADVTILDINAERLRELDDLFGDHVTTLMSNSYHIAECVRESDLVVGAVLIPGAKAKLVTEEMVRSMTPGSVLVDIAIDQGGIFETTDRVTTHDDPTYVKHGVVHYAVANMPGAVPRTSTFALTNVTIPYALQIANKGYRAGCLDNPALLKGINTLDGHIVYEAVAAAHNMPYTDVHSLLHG

Km [1] [µM]	Molecule	Km [2] [µM]
810 ± 250	C[C@H](N)C(=O)O [L-alanine]	
	BsAlaDH (Bacillus subtilis subsp. subtilis str. 168) (protein, primers imply N-term MIIGVP, C-term SVAGA; about 45-55 kDa; possible hexamer (model)) MIIGVPKEIKNNENRVALTPGGVSQLISNGHRVLVETGAGLGSGFENEAYESAGAEIIADPKQVWDAEMVMKVKEPLPEEYVYFRKGLVLFTYLHLAAEPELAQALKDKGVTAIAYETVSEGRTLPLLTPMSEVAGRMAAQIGAQFLEKPKGGKGILLAGVPGVSRGKVTIIGGGVVGTNAAKMAVGLGADVTIIDLNADRLRQLDDIFGHQIKTLISNPVNIADAVAEADLLICAVLIPGAKAPTLVTEEMVKQMKPGSVIVDVAIDQGGIVETVDHITTHDQPTYEKHGVVHYAVANMPGAVPRTSTIALTNVTVPYALQIANKGAVKALADNTALRAGLNTANGHVTYEAVARDLGYEYVPAEKALQDESSVAGA	70 ± 30
